Earlier results in patent US20250339399A1, “SUPRAMOLECULAR SELF-ASSEMBLY SYSTEM” (Beijing Creatron Institute of Pharmaceutical Research Co., …, priority 2022, published 2025).
Where two headings read alike, the source gives them in different places.

Conditions: cited from earlier work; for Log D7.4: pH 7.4
[1] = Cannabidiol derivatives, Table 30 (chemical structures)
[2] = prost derivatives, Table 31 (relevant information)

Row | Compound | Log P [1] | further results
1 | C=C(C)[C@@H]1CCC(C)=C[C@H]1c1c(OC(=O)CO[Si](C)(C)C(C)(C)C)cc(CCCCC)cc1OC(=O)CO[Si](C)(C)C(C)(C)C [compound 54] | Log P = 9.55 H-D:0,H-R = 4 | 
2 | C=C(C)[C@@H]1CCC(C(=O)O)=C[C@H]1c1c(O)cc(C(C)(C)CCCCCC)cc1O [compound 25, ((1R,6R)-2′,6′-dihydroxy-4′-(2-methyloctan-2-yl)-6-(prop-1-en-2-yl)-1,4,5,6-tetrahydro-[1,1′-biphenyl]-3-carboxylic acid)] | Log P = 6.99 H-D:3,H-R = 4 | 
3 | C=C(C)c1ccc(C)cc1-c1c(O)cc(CCCCC)cc1O [compound 8, (5′-methyl-4-pentyl-2′-(prop-1-en-2-yl)-[1,1′-biphenyl]-2,6-diol)] | Log P = 6.85 H-D:2,H-R = 2 | 
4 | O=C1C[C@@H]2[C@@H](CC[C@@H](O)CCc3ccccc3)[C@H](O)C[C@@H]2O1 [Latanoprost lactone diol, latanoprost lactone diol] |  | Log P [2]: Log P: 1.87 D-H: 2 R-H: 3
5 | CC(C)OC(=O)CCC/C=C\C[C@@H]1[C@@H](/C=C/[C@@H](O)COc2cccc(C(F)(F)F)c2)[C@H](O)C[C@@H]1O [Travoprost, travoprost] |  | Log P [2]: Log P:3.84 D-H: 3 R-H: 5
6 | C=C(C)[C@@H]1CCC(C)=C[C@H]1c1c(O)cc(C(C)(C)CCCCCC)cc1O [compound 24, ((1′R,2′R)-5′-methyl-4-(2-methyloctan-2-yl)-2′-(prop-1-en-2-yl)-1′,2′,3′,4′-tetrahydro-[1,1′-biphenyl]-2,6-diol)] | Log P = 7.38 H-D:2,H-R = 2 | 
7 | CCCCCc1cc(O)c([C@H]2C=C(CO)CC[C@H]2C(C)C)c(O)c1 [compound 23, ((1′R,2′S)-5′-(hydroxymethyl)-2′-isopropyl-4-pentyl-1′,2′,3′,4′-tetrahydro-[1,1′-biphenyl]-2,6-diol)] | Log P = 5.39 H-D:3,H-R = 3 | 
8 | C=C(C)[C@H]1CCC(C)=C[C@@H]1c1c(O)cc(CCCCC)cc1O [compound 19, ((1′S,2′S)-5′-methyl-4-pentyl-2′-(propanediol-1-en-2-yl)-1′,2′,3′,4′-tetrahydro-[1,1′-biphenyl]-2,6-diol)] | Log P = 6.33 H-D:2,H-R = 2 | 
9 | CCCCC[C@](C)(O)/C=C/[C@@H]1[C@@H](C/C=C\CCCC(=O)O)[C@@H](O)C[C@H]1O [Carboprost, carboprost] |  | Log P [2]: Log P:2.89 D-H: 4 R-H: 5
10 | CCCCC(C)(O)C/C=C/[C@H]1[C@H](O)CC(=O)[C@@H]1CCCCCCC(=O)OC (mixture of isomers) [Misoprostol, misoprostol] |  | Log P [2]: Log P:3.86 D-H: 2 R-H:4
11 | C=C(C)[C@@H]1CCC(C)=C[C@H]1c1c(C)cc(O)cc1O [compound 62, (5-methyl-4-[(1R,6R)-3-methyl-6-prop-1-en-2-ylcyclohex-2-en-1-yl]benzene-1,3-diol)] | Log P = 4.55 H-D:2,H-R = 2 | 
12 | CCCCCc1cc(O)c2c(c1)OC(C)(C)[C@@H]1CCC(C)=C[C@@H]21 [compound 66, Tetrahydrocannabinol] | Log P = 5.73 H-D:1,H-R = 2 | 
13 | C=C(C)[C@H]1CC[C@H](C)C[C@@H]1c1c(O)cc(/C=C/c2ccccc2O)cc1O [compound 15, (5-((E)-2-hydroxystyryl-2-(1S,2S,5S)-5-methyl-2-(prop-1-en-2-yl)cyclohexyl)phenyl-1,3-diol)] | Log P = 6.48 H-D:3,H-R = 3 | 
14 | C=C(C)[C@@H]1CCC(C)=C[C@H]1c1c(O)cc(CCCCC)cc1OC [compound 7, ((1′R,2′R)-6-methoxy-5′-methyl-4-pentyl-2′-(prop-1-en-2-yl)-1′,2′,3′,4′-tetrahydro-[1,1′-biphenyl]-2-ol)] | Log P = 6.47 H-D:1,H-R = 2 | 
15 | CCCCCCC(C)(C)c1cc(O)c([C@@H]2CC(C)CC[C@H]2C(C)C)c(O)c1 (stereo partly drawn) [compound 29, (2-((1R,2S)-2-isopropyl-5-methylcyclohexyl)-5-(2-methyloctan-2-yl)benzene-1,3-diol)] | Log P = 8.55 H-D:2,H-R = 2 | 
16 | C=C(C)[C@@H]1CCC(CO)=C[C@H]1c1c(O)cc(C(C)(C)CCCCCC)cc1O [compound 26, ((1′R,2′R)-5′-(hydroxymethyl)-4-(2-methyloctan-2-yl)-2′-(prop-1-en-2-yl)-1′,2′,3′,4′-tetrahydro-[1,1′-biphenyl]-2,6-diol)] | Log P = 6.52 H-D:3,H-R = 3 | 
17 | C=C(C)[C@H]1CC[C@H](C)C[C@@H]1c1c(O)cc(/C=C/c2ccccc2)cc1O [compound 14, (2-((1S,2S,5S)-5-methyl-2-(prop-1-en-2-yl)cyclohexyl)-5-((E)-styryl)phenyl-1,3-diol)] | Log P = 6.78 H-D:2,H-R = 2 | 
18 | C=C(C)[C@@H]1CC(OC(C)=O)C(C)=C[C@H]1c1c(OC(C)=O)cc(CCCCC)cc1OC(C)=O (stereo partly drawn) [compound 57, (3-(acetyloxy)-2-[(1R,6R)-4-(acetyloxy)-3-methyl-6-(prop-1-en-2-yl)cyclohex-2-en-1-yl]-5-pentylphenyl acetate)] | Log P = 5.36 H-D:0,H-R = 3 | 

Row | Compound | Log P [1] | further results
19 | CCCCCCC(C)(C)c1cc(OC)c(C2C=C(CO)[C@@H]3C[C@H]2C3(C)C)c(OC)c1 (some centres unmarked) [compound 31] | Log P = 6.39 H-D:1,H-R = 3 | 
20 | C=C(C)[C@H]1CCC(C)=C[C@@H]1c1c(O)cc(O)c(C(=O)CCc2ccccc2)c1O [compound 18, (3-phenyl-1-((1′S,2′S)-2,4,6-trihydroxy-5′-methyl-2′-(prop-1-en-2-yl)-1′,2′,3′,4′-tetrahydro-[1,1′-biphenyl]-3-yl)prop-1-one)] | Log P = 6.87 H-D:3,H-R = 4 | 
21 | C=C(C)[C@@H]1CCC(C(=O)O)=C[C@H]1c1c(O)cc(CCCCC)cc1O [compound 10, ((1R,6R)-2′,6′-dihydroxy-4′-pentyl-6-(prop-1-en-2-yl)-1,4,5,6-tetrahydro-[1,1′-biphenyl]-3-carboxylic acid)] | 5.52 | Log D7.4 (Cannabidiol derivatives): 2.40
22 | (2-[(1R,2R)-2-[2,6- di(acetoxy)-4- pentenyl]-4- methylcyclohex-3- en-1-yl]prop-2-en- 1-yl acetate) [compound 58] | Log P = 5.31 H-D:0,H-R = 3 | 
23 | CCCCC[C@H](O)/C=C/[C@H]1[C@H](O)CC(=O)[C@@H]1CCCCCCC(=O)O [Alprostadil, alprostadil] |  | Log P [2]: Log P 3.58 H,3 R-H 5
24 | CCCCCc1cc(O)c([C@@H]2C=C(CO)CC[C@H]2C(C)C)c(O)c1 [compound 22, ((1′S,2′S)-5′-(hydroxymethyl)-2′-isopropyl-4-pentyl-1′,2′,3′,4′-tetrahydro-[1,1′-biphenyl]-2,6-diol)] | Log P = 5.39 H-D:3,H-R = 3 | 
25 | CCCCCCC(C)(C)c1cc(OC)c([C@H]2C=C(CO)[C@H]3C[C@@H]2C3(C)C)c(OC)c1 [compound 30] | Log P = 6.39 H-D:1,H-R = 3 | 
26 | C=C(C)[C@@H]1CCC(C)=C[C@H]1C1=C(O)C(=O)C(CCCCC)=CC1=O [compound 59, (3-hydroxy-2-[(1R,6R)-3-methyl-6-prop-1-en-2-ylcyclohex-2-en-1-yl]-5-pentylcyclohex-2,5-diene-1,4-dione)] | Log P = 5.23 H-D:1,H-R = 3 | 
27 | C=C(C)[C@@H]1CCC(C)=C[C@H]1c1c(O)cc(CCCCC)cc1OCCCN [compound 51, ((1′R,2′R)-6-(3-aminopropoxy)-5′-methyl-4-pentyl-2′-(prop-1-en-2-yl)-1′,2′,3′,4′-tetrahydro-[1,1′-biphenyl]-2-ol)] | Log P = 5.73 H-D:2,H-R = 3 | 
28 | C=C(C)[C@@H]1CCC(C)=C[C@H]1c1c(O)cc(CCC)c(C(=O)O)c1O [compound 6, ((1′R,2′R)-2,6-dihydroxy-5′-methyl-2′-(prop-1-en-2-yl)-4-propyl-1′,2′,3′,4′-tetrahydro-[1,1′-biphenyl]-3-carboxylic acid)] | 5.74 | Log D7.4 (Cannabidiol derivatives): 2.26
29 | C=C(C)[C@@H]1CCC(C)=C[C@H]1c1c(O)cc(CCCCC)c(C(=O)O)c1O [compound 5, ((1′R,2′R)-2,6-dihydroxy-5′-methyl-4-pentyl-2′-(prop-1-en-2-yl)-1′,2′,3′,4′-tetrahydro-[1,1′-biphenyl]-3-carboxylic acid)] |  | Log D7.4 (Cannabidiol derivatives): 3.15
30 | O=C(O)CCC/C=C\C[C@@H]1[C@@H](/C=C/[C@@H](O)COc2cccc(C(F)(F)F)c2)[C@H](O)C[C@@H]1O [Travoprost acid, travoprost acid] |  | Log P [2]: Log P:2.92 D-H: 4 R-H: 6
31 | C=C(C)[C@@H]1CCC(C)=C[C@H]1c1c(O)cc(CCCC(=O)O)cc1O [compound 36, (4-((1′R,2′R)-2,6-dihydroxy-5′-methyl-2′-(prop-1-en-2-yl)-1′,2′,3′,4′-tetrahydro-[1,1′-biphenyl]-4-yl)butyric acid)] | Log P = 4.59 H-D:3,H-R = 4 | 
32 | C=C(C)[C@@H]1CCC(C)=C[C@H]1c1c(O)cc(CCCCC)cc1O [compound 1, ((1′R,2′R)-5′-methyl-4-pentyl-2′-(prop-1-en-2-yl)-1′,2′,3′,4′-tetrahydro-[1,1′-biphenyl]-2,6-diol)] | Log P = 6.32, H-D:2,H-R = 2 | 
33 | C=C(C)[C@@H]1CCC(C)=C[C@H]1c1c(O)cc(CCCCC)cc1OCC(=O)O [compound 50] | Log P = 5.95 H-D:2,H-R = 4 | 
34 | C=C(C)[C@@H]1CCC(C)=C[C@H]1c1c(O)cc(C)cc1O [compound 2, ((1′R,2′R)-4,5′-dimethyl-2′-(prop-1-en-2-yl)-1′,2′,3′,4′-tetrahydro-[1,1′-biphenyl]-2,6-diol)] | Log P = 4.55, H-D:2,H-R = 2 | 
35 | C=C(C)[C@@H]1CCC(C)=C[C@H]1C1=C(O)C(=O)C(CCCCC)=C(NCc2ccccc2)C1=O [compound 61, (2,5-cyclohexadiene-1,4-dione, 2-hydroxy-3-((1R,6R)-3-methyl-6-(1-methylvinyl)-2-cyclohexen-1-yl)-6-pentyl-5-((benzyl)amino))] | Log P = 6.23 H-D:2,H-R = 4 | 
36 | CCCCCc1cc(O)c(C/C=C(\C)CCC=C(C)C)c(O)c1 [compound 64, (2-[(2E)-3,7-dimethylocta-2,6-dienyl]-5-pentylbenzene-1,3-diol)] |  | Log P: Log P = 7.05 H-D:2,H-R = 2
